# Reference: patent publication US10293009B2, “Pharmaceutical or food composition comprising Oldenlandia brachypoda, Spergularia marina, Disporum smilacinum, Persicaria posumbu, or Geum aleppicum” (KOREA FOOD RESEARCH INSTITUTE, priority 2012, dated 2019)
# What was measured:
# STC-1 cells [1] = assay: CCK secretion in STC-1 cells (EIA); type: cell-based; details: 60 minutes
# Protocol: STC-1 cells were cultured in Dulbecco's modified Eagle's medium (DMEM) containing 10% fetal bovine serum (FBS) and 1% penicillin-streptomycin in an incubator maintained at 37° C. and 5% CO2. […] An enzyme immunoassay (EIA) kit (Phoenix Pharmaceuticals Inc., Belmont Calif.) was used.
# STC-1 cells [2] = assay: CCK secretion in STC-1 cells after inhibitor pretreatment (RR, HC-030031, TPPO, U-73122); type: cell-based; details: 0.1 mM
# Protocol: (§1) The cultured cells were inoculated onto a 24-well plate at a concentration of 2×10^5 cells/well and incubated under the condition of 37° C. and 5% CO2. 72 hours later, the cells were washed 2 times with HEPES buffer (4.5 mM KCl, 1.2 mM CaCl2, 1.2 mM MgCl2, 10 mM glucose, 140 mM NaCl, 20 mM HEPES-Tris, pH 7.4) and then incubated at 37° C. for 60 minutes after adding the test substance to the HEPES buffer. After the incubation, the medium was centrifuged at 10000 rpm for 10 minutes and the resultant supernatant was stored at −70° C. for use in analysis. An enzyme immunoassay (EIA) kit (Phoenix Pharmaceuticals Inc., Belmont Calif.) was used.
# The STC-1 cells were pretreated for 30 minutes with 100 μM ruthenium red (RR) or with 50 μM HC-030031. After adding 50 μg/mL of the extract, the cells were incubated at 37° C. for 60 minutes.
# The STC-1 cells were pretreated for 30 minutes with 100 μM ruthenium red (RR) or with 50 μM HC-030031. After adding 500 μg/mL of the extract, the cells were incubated at 37° C. for 60 minutes.
# The STC-1 cells were pretreated for 30 minutes with 400 μM TPPO or with 20 μM U-73122.
# After adding 500 μg/mL of the extract, the cells were incubated at 37° C. for 60 minutes.
# The STC-1 cells were pretreated for 30 minutes with 100 μM ruthenium red (RR) or with 50 μM HC-030031. Then, the cells were incubated at 37° C. for 60 minutes after adding 500 μg/mL of the extract.
# Then, the cells were incubated at 37° C. for 60 minutes after adding 500 μg/mL of the extract.
# STC-1 cells [3] = assay: Change in Ca2+ level in STC-1 cells; type: cell-based
# Protocol: (§2) The cells were inoculated onto a poly-D-Lysine-coated black 96-well clear-bottom plate (Thermo) at a concentration of 8.0×10^4 cells/well and incubated under the condition of 37° C. and 5% CO2. 72 hours later, the cells were incubated at 37° C. for 60 minutes using the Calcium-5 assay kit (Molecular Devices) and the change in Ca^2+ level was measured using Flexstation III. The change in Ca^2+ level was monitored for about 120 seconds at fluorescence wavelengths of 488 nm (ex) and 525 nm (em) and for 2 seconds after injecting the compound for 20 seconds.
# STC-1 cells [4] = assay: Change in Ca2+ level in STC-1 cells after inhibitor pretreatment (RR, HC-030031, TPPO, U-73122); type: cell-based; details: 0.1 mM
# Protocol: as §2
# The STC-1 cells were pretreated for 60 minutes with 100 μM ruthenium red (RR) or with 50 μM HC-030031. Then, the cells were treated with 1 mg/mL of the extract.
# The STC-1 cells were pretreated for 60 minutes with 400 μM TPPO or with 20 μM U-73122.
# Then, the cells were treated with 1 mg/mL of the extract.
# The STC-1 cells were pretreated for 60 minutes with 100 μM ruthenium red or with 50 μM HC-030031. Then, the cells were treated with 1 mg/mL of the extract.
# The STC-1 cells were pretreated for 60 minutes with 400 μM TPPO or with 20 μM U-73122. Then, the cells were treated with 1 mg/mL of the extract.
# RIN14B cells [5] = assay: 5-HT secretion in RIN14B cells (Serotonin EIA); type: cell-based; details: 300 μM, 60 minutes
# Protocol: RIN14B cells were cultured in RPMI medium 1640 containing 10% fetal bovine serum (FBS) and 1% penicillin-streptomycin in an incubator maintained at 37° C. and 5% CO2.
# as §1, with “5-HT assay” for “HEPES”, “(HBSS, 0.1% BSA, 1.25” for “(4.5 mM KCl, 1.2”, “2 μM fluoxetine,” for “1.2 mM MgCl2, 10 mM glucose, 140 mM NaCl, 20 mM HEPES-Tris,”, “10,000” for “10000”, “A Serotonin” for “An enzyme immunoassay”, “(Enzo Life Sciences)” for “(Phoenix Pharmaceuticals Inc., Belmont Calif.)”
# RIN14B cells [6] = assay: 5-HT secretion in RIN14B cells after inhibitor pretreatment (RR, HC-030031); type: cell-based; details: 300 μM
# Protocol: as §1, with “5-HT assay” for “HEPES”, “(HBSS, 0.1% BSA, 1.25” for “(4.5 mM KCl, 1.2”, “2 μM fluoxetine,” for “1.2 mM MgCl2, 10 mM glucose, 140 mM NaCl, 20 mM HEPES-Tris,”, “10,000” for “10000”, “A Serotonin” for “An enzyme immunoassay”, “(Enzo Life Sciences)” for “(Phoenix Pharmaceuticals Inc., Belmont Calif.)”
# The RIN14B cells were pretreated for 30 minutes with 100 μM ruthenium red (RR) or with 50 μM HC-030031. […]
# RIN14B cells [7] = assay: Change in Ca2+ level in RIN14B cells; type: cell-based
# Protocol: as §2, with “a” for “a poly-D-Lysine-coated”, “(Corning)” for “(Thermo)”, “5.0×10^4” for “8.0×10^4”, “48” for “72”
# RIN14B cells [8] = assay: Change in Ca2+ level in RIN14B cells after inhibitor pretreatment (RR, HC-030031); type: cell-based; details: 300 μM
# Protocol: as §2, with “a” for “a poly-D-Lysine-coated”, “(Corning)” for “(Thermo)”, “5.0×10^4” for “8.0×10^4”, “48” for “72”
# The RIN14B cells were pretreated for 60 minutes with 100 μM ruthenium red (RR) or with 50 μM HC-030031. […]
# STC-1 cells [9] = assay: Membrane potential change in STC-1 cells; type: cell-based
# NCI-H716 cells = assay: Intracellular cAMP in NCI-H716 cells (EIA); type: cell-based, Human; details: 20 μM
# Protocol: The NCI-H716 cells were plated onto a 24-well culture plate at a concentration of 1×10^6 cells/mL and cultured for 3 days. On the day of the experiment, the cells were incubated with the sample in KRB buffer at 37° C. using a 5% CO2 incubator. After the incubation, the medium was removed and the cells were washed 3 times with KRB buffer. They were then incubated at 150 rpm at room temperature for 20 minutes after adding 0.5 mL of 0.1 N HCl. The incubated cells were then centrifuged at 1000 g for 10 minutes and the supernatant was analyzed by an enzyme immunoassay (EIA) using the cyclic AMP kit.
# GPR119 = biological target: T1, GPR119 (Homo sapiens, UniProt Q8TDV5); assay: GLP-1 secretion in NCI-H716 cells treated with GPR119 siRNA; type: cell-based
# T1 construct: The transfection of the cells with GPR119 siRNA leads to knockdown of the GPR119 gene; endogenous in cells; host or cells: NCI-H716 cells
# T1 sequence (Q8TDV5 1-335): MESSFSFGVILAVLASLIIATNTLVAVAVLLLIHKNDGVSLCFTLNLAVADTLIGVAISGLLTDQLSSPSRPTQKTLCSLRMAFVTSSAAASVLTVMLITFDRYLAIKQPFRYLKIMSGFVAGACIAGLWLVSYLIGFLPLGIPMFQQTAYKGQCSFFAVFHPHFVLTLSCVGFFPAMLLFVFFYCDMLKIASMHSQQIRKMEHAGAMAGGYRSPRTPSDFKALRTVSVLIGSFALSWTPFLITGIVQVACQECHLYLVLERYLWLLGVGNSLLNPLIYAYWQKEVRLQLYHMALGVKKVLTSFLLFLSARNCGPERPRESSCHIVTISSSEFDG
# Protocol: The NCI-H716 cells were cultured on a 96-well plate for 3 days to a concentration of 2×10^5 cells/mL. On the day of the experiment, the cells were washed with phosphate-buffered saline (PBS) and incubated at 37° C. for 1 hour in Krebs-Ringer bicarbonate buffer (KRB, 128.8 mmol/L NaCl, 4.8 mmol/L KCl, 1.2 mmol/L KH2PO4, 1.2 mmol/L MgSO4, 2.5 mmol/L CaCl2, 5 mmol/L NaHCO3, 10 mmol/L HEPES, 0.2% BSA, pH 7.4) to which the sample was added. Then, for GLP-1 assay, the supernatant (100 μL) was taken and analyzed using an active GLP-1 ELISA kit (EGLP-35K, Millipore). The concentration of GLP-1 was calculated GLP-1 standard (pmol/mL) and the result was expressed as fold of control by comparing the concentration of GLP-1 secreted by stimulation with the sample and the concentration of GLP-1 secreted by stimulation with a control substance.
# siRNA sequence targeting human α-gustducin (GNAT3, accession no. NM 001102386, Dharmacon on-target SMARTpool siRNA reagent), GPR119 ([…]/GeneBank accession no. NM_176817) and non-target SMARTpool siRNA were purchased from Dharmacon (Lafayette, Colo.). The NCI-H716 cells were transfected with the siRNAs for 48 hours using the Neon™ transfection system (Invitrogen, Carlsbad, Calif.). Then, GLP-1 secretion and the concentrations of Ca^2+ and cAMP were measured.
smiles,measurement,setting,value
C=CCN=C=S [AITC],"CCK secretion, Fold of control (mean ± S.E.M.)",STC-1 cells [1]; 0.1 mM,21.57 ± 0.59 Fold of control
same,"CCK secretion, Fold of control (mean ± S.E.M.)",STC-1 cells [1]; 1 mM,21.99 ± 0.64 Fold of control
same,"CCK secretion, Fold of control (mean ± S.E.M.)",STC-1 cells [1]; 10 mM,25.59 ± 0.59 Fold of control
same,Inhibition (%) of CCK secretion,STC-1 cells [2]; HC-030031 50 μM,52.58%
same,Inhibition (%) of CCK secretion,STC-1 cells [2]; RR 100 μM,73.21%
same,"CCK secretion, Fold of control (mean ± S.E.M.)",STC-1 cells [2]; inhibitor: Untreated,22.56 ± 0.65 Fold of control
same,"CCK secretion, Fold of control (mean ± S.E.M.)",STC-1 cells [2]; pretreated 50 μM HC-030031,10.70 ± 0.92 Fold of control
same,"CCK secretion, Fold of control (mean ± S.E.M.)",STC-1 cells [2]; pretreated 100 μM RR,6.04 ± 0.73 Fold of control
same,"Change in Ca^2+ level, ΔRFU (mean ± S.E.M.)",STC-1 cells [3]; 0.1 mM,105.41 ± 2.12 ΔRFU
same,"Change in Ca^2+ level, ΔRFU (mean ± S.E.M.)",STC-1 cells [3]; 1 mM,151.04 ± 5.65 ΔRFU
same,"Change in Ca^2+ level, ΔRFU (mean ± S.E.M.)",STC-1 cells [3]; 10 mM,168.68 ± 5.79 ΔRFU
same,Inhibition (%) of Ca^2+ change,STC-1 cells [4]; HC-030031 50 μM,83.50%
same,Inhibition (%) of Ca^2+ change,STC-1 cells [4]; RR 100 μM,93.14%
same,"Change in Ca^2+ level, ΔRFU (mean ± S.E.M.)",STC-1 cells [4]; inhibitor: Untreated,400.52 ± 6.90 ΔRFU
same,"Change in Ca^2+ level, ΔRFU (mean ± S.E.M.)",STC-1 cells [4]; pretreated 50 μM HC-030031,66.07 ± 2.56 ΔRFU
same,"Change in Ca^2+ level, ΔRFU (mean ± S.E.M.)",STC-1 cells [4]; pretreated 100 μM RR,27.47 ± 1.77 ΔRFU
same,"5-HT secretion, Fold of control (mean ± S.E.M.)",RIN14B cells [5],8.11 ± 2.70 Fold of control
same,Inhibition (%) of 5-HT secretion,RIN14B cells [6]; HC-030031 50 μM,−11.27%
same,Inhibition (%) of 5-HT secretion,RIN14B cells [6]; RR 100 μM,55.56%
same,"5-HT secretion, Fold of control (mean ± S.E.M.)",RIN14B cells [6]; inhibitor: Untreated,8.11 ± 2.70 Fold of control
same,"5-HT secretion, Fold of control (mean ± S.E.M.)",RIN14B cells [6]; pretreated 50 μM HC-030031,9.02 ± 6.37 Fold of control
same,"5-HT secretion, Fold of control (mean ± S.E.M.)",RIN14B cells [6]; pretreated 100 μM RR,3.60 ± 1.80 Fold of control
same,"Change in Ca^2+ level, ΔRFU (mean ± S.E.M.)",RIN14B cells [7]; 50 μM,13.44 ± 1.78 ΔRFU
same,"Change in Ca^2+ level, ΔRFU (mean ± S.E.M.)",RIN14B cells [7]; 300 μM,19.78 ± 4.08 ΔRFU
same,"Change in Ca^2+ level, ΔRFU (mean ± S.E.M.)",RIN14B cells [7]; 500 μM,22.17 ± 3.65 ΔRFU
same,Inhibition (%) of Ca^2+ change,RIN14B cells [8]; HC-030031 50 μM,70.31%
same,Inhibition (%) of Ca^2+ change,RIN14B cells [8]; RR 100 μM,66.36%
same,"Change in Ca^2+ level, ΔRFU (mean ± S.E.M.)",RIN14B cells [8]; inhibitor: Untreated,13.42 ± 1.08 ΔRFU
same,"Change in Ca^2+ level, ΔRFU (mean ± S.E.M.)",RIN14B cells [8]; pretreated 50 μM HC-030031,3.98 ± 0.80 ΔRFU
same,"Change in Ca^2+ level, ΔRFU (mean ± S.E.M.)",RIN14B cells [8]; pretreated 100 μM RR,4.51 ± 1.40 ΔRFU
[Cl-].[K+] [KCl],"Membrane potential change, ΔRFU (mean ± SEM)",STC-1 cells [9]; 0.1 mM,17.01 ± 0.93 ΔRFU
same,"Membrane potential change, ΔRFU (mean ± SEM)",STC-1 cells [9]; 1 mM,35.08 ± 3.43 ΔRFU
same,"Membrane potential change, ΔRFU (mean ± SEM)",STC-1 cells [9]; 10 mM,270.08 ± 9.57 ΔRFU
"CCCCCCCC/C=C\CCCCCCCC(=O)NCCO [OEA (oleoylethanolamide), oleoylethanolamide]",cAMP (fold of control),NCI-H716 cells,6.813 ± 1.634 fold of control
same,GLP-1 secretion (fold of control) GPR119 siRNA,"GPR119; 20 μM, GPR119 siRNA",2.975 ± 0.241 fold of control
same,GLP-1 secretion (fold of control) Control siRNA,"GPR119; 20 μM, control siRNA",4.822 ± 0.358 fold of control
same,inhibition at 20 µM,GPR119; NCI-H716,38.3%
